Assay results reported in US11247973B2 (The University of Durham, priority 2016, dated 2022).
Like-named read-outs stand apart in the source and are kept apart here.

Assays:
[1] = Microsomal clearance, rat; assay type: in vitro ADME; conditions: male, Sprague Dawley, pooled liver microsomes
Description: (§1) Pooled human liver microsomes (pooled male and female), pooled rat liver microsomes (male Sprague Dawley rats) and pooled dog liver microsomes (male Beagle dog) are purchased from a reputable commercial supplier and stored at −80° C. prior to use.
(§2) Microsomes (final protein concentration 0.5 mg/mL), 0.1 M phosphate buffer pH 7.4 and compound 2 (final substrate concentration 3 μM; final DMSO concentration 0.25%) are pre-incubated at 37° C. prior to the addition of NADPH (final concentration 1 mM) to initiate the reaction. The final incubation volume is 50 μL. A control incubation is included for each compound tested where 0.1 M phosphate buffer pH 7.4 is added instead of NADPH (minus NADPH). Two control compounds are included with each species. All incubations are performed singularly for each test compound.
(§3) Compounds are incubated for 0, 5, 15, 30 and 45 min. The control (minus NADPH) is incubated for 45 min only. The reactions are stopped by transferring 25 μL of incubate to 50 μL methanol at the appropriate time points. […] Following protein precipitation, the sample supernatants are combined in cassettes of up to 4 compounds, internal standard is added and samples analysed by LC-MS/MS. From a plot of ln peak area ratio (compound peak area/internal standard peak area) against time, the gradient of the line is determined.

[2] = test system: RSV; assay: Plaque reduction assay in Vero cells (standard and time of addition); assay type: cell-based; conditions: human respiratory syncytial virus
[3] = MTT cell toxicity assay; assay type: cell-based; conditions: African green monkey, Vero cells
Description: Vero cells were seeded in 96-well plates in a volume of 100 μL Optimem media supplemented with 1% FBS at a concentration of 1×10^4 cells per well. After an overnight incubation at 37° C. in a humidified 5% CO2 atmosphere, the monolayer of cells should be approximately 90% confluent. Compound 2 was titrated in pre-warmed Serum Free (SF) Optimem in a U-bottom 96 well plate. For compounds in a DMSO solution, titration in 100% DMSO was performed first and each concentration added individually to a 2× final concentration at 4% DMSO. Media was then removed from cells and replaced with titrated compounds (100 μl/well). Cells were incubated at 37° C. in a humidified 5% CO2 atmosphere for 48 hours.
The MTT solution on Optimem (4 mg/ml) was prepared and 2 ul added to each well before it was incubated for 2 hours at 37° C. in a humidified 5% CO2 atmosphere. Media was then removed from the cells and DMSO added (50 ul/well). Plates were placed on a shaker prior to reading in a Spectromax at 570 nm. Data was normalised relative to untreated controls (1% DMSO only) and CC50 values determined using non-linear regression analysis with Graphpad Prism software.

[4] = Microsomal clearance, human; assay type: in vitro ADME; conditions: both, pooled liver microsomes
Description: as §1, §2, §3

`O=C(CNc1c(F)c(F)nc(F)c1F)N[C@H]1N=C(c2ccccc2)c2ccccc2NC1=O` [Compound 2] showed a microsomal CLint at 3 μM ([1]; pH 7.4, 0.5 mg/mL protein, read-out: Intrinsic clearance - rat) of 29.2 µL/min/mg, a half-life at 3 μM ([1]; pH 7.4, read-out: t½ - rat) of 47.5 min and an IC50 ([2]; compound added during infection only, read-out: Plaque IC50 (during infection only)) of 10.9 µM. It also gave an IC50 ([2]; compound added post infection only, read-out: Plaque IC50 (post infection only)) of 2 µM, an IC50 ([2]; standard plaque reduction assay, read-out: Plaque IC50) of 1.1 µM and a CC50 at 48 h [3] of 63 µM. It also gave a microsomal CLint at 3 μM ([4]; pH 7.4, 0.5 mg/mL protein, read-out: Intrinsic clearance - human) of 52.6 µL/min/mg and a half-life at 3 μM ([4]; pH 7.4, read-out: t½ - human) of 26.3 min.
